Key:
[1] = target: T1, Steroid 17-alpha-hydroxylase/17,20 lyase (Rattus norvegicus, UniProt P11715); assay: Inhibition of rat testis 17,20 lyase component of P450-17alpha at 10 uM
T1 sequence (P11715 whole entry): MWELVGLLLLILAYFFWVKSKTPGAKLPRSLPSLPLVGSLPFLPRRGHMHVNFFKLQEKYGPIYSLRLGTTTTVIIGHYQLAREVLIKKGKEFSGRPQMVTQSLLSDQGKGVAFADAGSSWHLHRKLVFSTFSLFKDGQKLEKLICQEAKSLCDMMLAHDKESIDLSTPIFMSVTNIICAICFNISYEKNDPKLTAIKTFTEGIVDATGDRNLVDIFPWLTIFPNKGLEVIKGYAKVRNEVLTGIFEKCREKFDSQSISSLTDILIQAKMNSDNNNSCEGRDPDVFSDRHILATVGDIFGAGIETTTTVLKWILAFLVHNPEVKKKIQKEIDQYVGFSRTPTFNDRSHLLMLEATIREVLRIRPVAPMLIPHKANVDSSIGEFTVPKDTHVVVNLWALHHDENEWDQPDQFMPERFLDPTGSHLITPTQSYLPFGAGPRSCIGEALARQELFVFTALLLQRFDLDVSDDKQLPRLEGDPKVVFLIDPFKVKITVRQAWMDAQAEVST

[2] = target: T1, Steroid 17-alpha-hydroxylase/17,20 lyase; assay: Inhibition of rat testis 17-alpha-hydroxylase component of P450-17alpha at 10 uM
[3] = target: T1, Steroid 17-alpha-hydroxylase/17,20 lyase; assay: Inhibition of rat testis 17,20 lyase component of P450-17alpha
[4] = target: T1, Steroid 17-alpha-hydroxylase/17,20 lyase; assay: Inhibition of rat testis 17-alpha-hydroxylase component of P450-17alpha

Compound	inhibition at 10 µM [1] [%]	inhibition at 10 µM [2] [%]	IC50 [3] [µM]	IC50 [4] [µM]
c1ccc(Cn2ccnc2)cc1	12.6	13.5	50.9	154
Clc1ccc(CCCn2ccnc2)cc1	80.8	71	0.55	5.85
Fc1ccc(CCCn2ccnc2)cc1	73.2	40.8	1.96	27.8
Brc1ccc(CCn2ccnc2)cc1	61.5	37.5	–	30.7
Clc1ccc(CCn2ccnc2)cc1	57.4	28.4	–	49.6
c1ccc(CCn2ccnc2)cc1	6.36	10.6	–	–
Brc1ccc(CCCn2ccnc2)cc1	86.3	70.2	0.33	2.95
CC(=O)N1CCN(c2ccc(OCC3COC(Cn4ccnc4)(c4ccc(Cl)cc4Cl)O3)cc2)CC1 (stereo not given) [KETOCONAZOLE]	78.7	61.5	–	–

Further compounds by falling IC50 [4], results first:

inhibition at 10 µM [1] [%]	inhibition at 10 µM [2] [%]	IC50 [3] [µM]	IC50 [4] [µM]	Compound
45.1	22.5	–	120	Fc1ccc(CCn2ccnc2)cc1
51	20.5	11.3	96.5	Fc1ccc(Cn2ccnc2)cc1
40	23.4	6.14	30.9	c1ccc(CCCn2ccnc2)cc1
73.7	45.7	4.94	29.8	Clc1ccc(Cn2ccnc2)cc1
76.2	49.3	2.85	16.6	Brc1ccc(Cn2ccnc2)cc1
